The values that follow come from PubChem BioAssay (NCI).

The structures appear in SMILES notation.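 A five-concentration, 48-hour dose response in 96-well plates underlies each endpoint, interpolated linearly between surrounding concentrations. GI50 marks 50% less growth. At the TGI there is no net growth.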

Holding throughout (experiment): DTP human tumour cell line panel, 48 h
For test [1], the system named is BT-549 breast.
Test [2] has as its system HT29 colon.
The test system of test [3] is M14 melanoma.
The subject of test [4] is MDA-MB-435.
For test [5], the system named is NCI-H23 lung.
The subject of test [6] is SF-268 CNS.
Test [7] relates to SK-MEL-28 melanoma.
For test [8], the system named is SK-OV-3 ovarian.
Test [9] relates to SR leukemia.
The test system of test [10] is SW-620 colon.

What is called TGI is the concentration at which net growth stops. A lower TGI goes with greater sensitivity of the cells. Regarding `Cc1ccc(C(=O)Nc2ccc(CP(=O)(O)O)cc2CP(=O)(O)O)cc1N`, the TGI in [1], in test [2], in test [3], in test [4], in [5] and in test [6] was greater than 100 µM throughout. The total growth inhibition concentration (TGI) in test [7], in test [8], in test [9] and in test [10] was greater than 100 µM in each case.

On to `Cc1cc(NC(=O)NC(=O)c2ccccc2NC(=O)CN(C)C)ccc1Oc1ncc(Br)cn1`, for which the concentration for total growth inhibition (TGI) in [1] was greater than 100 µM; in test [2] it was 31.1 µM; in test [3] it was greater than 57.4 µM; in [4], 3.09 µM; in [5] it was 65.9 µM; in test [6], greater than 100 µM. The TGI in test [7] is greater than 56.2 µM; in test [8], greater than 91.5 µM; in test [9], greater than 79.5 µM; in test [10], greater than 100 µM.

With `CC(C)CNP(=O)(NCC(C)C)Oc1ccc(CC(NC(=O)OCc2ccccc2)C(=O)OCc2ccccc2)cc1` (stereo not given), the TGI in [1] came out at 52.4 µM; in [2], 33.4 µM; in test [3], 67.7 µM; in [4], 22.8 µM; in [5], 32.3 µM; in [6] it was 33 µM. Besides, the TGI was found to be 30.5 µM in test [7], 29.2 µM in [8], 29.2 µM in [9] and 40.2 µM in [10].

Consider `COc1ccc(C2C(=O)c3ccc(OC)cc3OC2c2cccnc2)cc1` (stereo not given), for which the TGI in [1], in test [2], in test [3], in test [4], in [5] and in test [6] was greater than 100 µM each time. Also, the concentration for total growth inhibition (TGI) in test [7], in [8], in test [9] and in test [10] was greater than 100 µM throughout.

As for `Cc1nnc(SCc2nc(C#N)c(C#N)nc2CSc2nnc(C)s2)s1`, the TGI came out at 36.3 µM in [1]; 37.2 µM in [2]; 37.6 µM in [3]; 26.4 µM in [4]; 45 µM in [5]; 35.4 µM in [6]. In addition, the TGI in test [7] is greater than 90.8 µM; in test [8], greater than 75.9 µM; in test [9], 51.4 µM; in test [10] it was 15.6 µM.

Regarding `CCNC(=S)N/N=C(/C)c1cccc(/C(C)=N\NC(=S)NCC)n1`, the total growth inhibition concentration (TGI) in test [1] is greater than 100 µM; in [2], 46.2 µM; in [3] it was 19.9 µM; in [4] it was greater than 100 µM; in [5] it was 73.7 µM; in test [6], greater than 100 µM. The TGI is greater than 100 µM in test [7], 73.8 µM in test [8], greater than 15.7 µM in test [9] and greater than 100 µM in test [10].

With `COC(=O)c1c(O)ccc2c1c1c(n2Cc2ccc(OC)cc2)C(=O)c2ccccc2C1`, the concentration for total growth inhibition (TGI) in test [1] was greater than 100 µM; in test [2], 47.4 µM; in test [3] it was greater than 100 µM; in [4], greater than 100 µM; in [5] it was greater than 100 µM; in test [6] it was greater than 100 µM. The TGI in test [7], in [8], in test [9] and in test [10] was greater than 100 µM each time.

As to `CC(C)OC(=O)C(NC(=O)C(CC(=O)OCc1ccccc1)NC(=O)OCc1ccccc1)NC(=O)C1C(C)(C)CCC1(C)C` (stereo not given), the total growth inhibition concentration (TGI) in test [1] is 34.3 µM; in [2], 14.3 µM; in test [3], greater than 57.1 µM; in test [4], greater than 53.3 µM; in [5], 23.9 µM; in [6] it was 45.9 µM. The TGI in [7] was greater than 56.2 µM; in test [8], 10.4 µM; in [9] it was 7.5 µM; in test [10], 10.8 µM.

Regarding `CC1(C)CCC[C@@]2(C)C1CC[C@@]1(CO)O[C@H](C3=CC(=O)OC3O)C[C@H]12` (stereo not given in full), the TGI in test [1] was 20.7 µM; in test [2], 30.6 µM; in [3], 31.8 µM; in [4], 24.6 µM; in test [5], 26.6 µM; in test [6], greater than 55.6 µM. Further, the TGI in test [7] was determined as 25.6 µM; in [8], 72.6 µM; in test [9] it was 7.58 µM; in [10], 22.3 µM.

Turning to `O=c1c2[nH]cnc2n(-c2ccccc2)c(=S)n1-c1ccccc1`, the TGI in test [1], in [2], in test [3], in test [4], in [5] and in test [6] was greater than 100 µM in each case. Also, the TGI in [7], in [8], in [9] and in test [10] was greater than 100 µM in each case.

Take `O=C(O)[C@H]1NC[C@H]2C(Br)=NO[C@@H]12`: the concentration for total growth inhibition (TGI) in [1], in test [2], in test [3], in test [4], in test [5] and in [6] was greater than 100 µM throughout. The TGI in [7], in test [8], in test [9] and in [10] was greater than 100 µM each time.

Take `C[C@H]1CCC/C=C/[C@@H]2C[C@H](OC3OC(CO)C(O)C(O)C3O)C[C@H]2[C@H](O)/C=C/C(=O)O1` (stereo not given in full): the TGI in test [1], in test [2], in test [3], in [4], in [5] and in test [6] was greater than 100 µM in each case. The TGI in test [7] was 87.3 µM; in test [8] it was greater than 100 µM; in [9] it was greater than 100 µM; in test [10], greater than 100 µM.

With `O=c1[nH]c2c(Nc3c4ccccc4nc4ccccc34)c([N+](=O)[O-])c(Nc3c4ccccc4nc4ccccc34)c([N+](=O)[O-])c2[nH]1`, the TGI in [1] worked out at 20.6 µM; in [2], 3.11 µM; in test [3], 4.76 µM; in [4], 7.29 µM; in [5], 2.74 µM; in test [6], 6.74 µM. Moreover, the concentration for total growth inhibition (TGI) was 11.3 µM in [7], 18.4 µM in test [8], 4.07 µM in [9] and greater than 100 µM in test [10].

`Cn1c(CO)ccc1-c1ccc(-c2ccc(CO)[se]2)[se]1`: the TGI was greater than 91.4 µM in [1]; greater than 100 µM in test [2]; greater than 73.8 µM in [3]; 45.6 µM in [4]; greater than 74.8 µM in test [5]; greater than 100 µM in test [6]. The TGI in test [7], in test [8], in test [9] and in test [10] was greater than 100 µM in each case.

With `O=c1c2ccc(Cl)cc2oc2c(CSc3ccccc3)cccc12`, the TGI in [1] was greater than 78.7 µM; in test [2] it was greater than 100 µM; in test [3], greater than 100 µM; in [4] it was greater than 68.3 µM; in test [5], greater than 87.6 µM; in test [6], greater than 100 µM. Moreover, the TGI in [7] is greater than 100 µM; in [8] it was greater than 100 µM; in [9], greater than 100 µM; in test [10], greater than 31.6 µM.

As to `O=C(OCCN=c1c2ccccc2ccc2ccccc12)c1cc([N+](=O)[O-])cc([N+](=O)[O-])c1`, the TGI in [1], in test [2], in test [3], in test [4], in [5] and in test [6] was greater than 100 µM in each case. For the same compound, the TGI in [7], in test [8], in test [9] and in test [10] was greater than 100 µM each time.

Take `CCc1c(O)nc(Nc2nc3ccccc3[nH]2)[nH]c1=O`: the TGI in [1], in test [2], in test [3], in test [4], in test [5] and in test [6] was greater than 100 µM throughout. Also, the TGI in [7], in test [8], in test [9] and in test [10] was greater than 100 µM each time.

As to `Nc1c(C(=O)O)c2ccc([N+](=O)[O-])cc2c(=O)n1-c1nc2ccccc2s1`, the TGI in test [1], in test [2], in [3], in test [4], in [5] and in test [6] was greater than 100 µM in each case. Moreover, the concentration for total growth inhibition (TGI) in test [7], in test [8], in [9] and in test [10] was greater than 100 µM in each case.

In general, GI50 refers to the concentration giving 50% growth inhibition. Regarding `N#Cc1cc(F)cc(Oc2ccc(S(=O)(=O)C(F)F)c3c2CC(F)(F)[C@H]3O)c1`, the GI50 is 22.3 µM in test [1]; 39.3 µM in test [2]; 30.1 µM in test [3]; 37.7 µM in test [4]; 27.6 µM in test [5]; 35.4 µM in test [6]. Also, the GI50 in [7] is 36.1 µM; in test [8] it was 31.4 µM; in test [9], 36 µM; in test [10], 55.3 µM. Further, the concentration for total growth inhibition (TGI) in [1], in test [2], in [3], in [4], in test [5] and in [6] was greater than 100 µM in each case. In addition, the TGI in test [7], in test [8], in test [9] and in test [10] was greater than 100 µM in each case.

As to `CC(C)Oc1cccc(N2C(CCc3c[nH]c4ccc(Br)cc34)=NS(=O)(=O)c3cnccc32)c1`, the TGI in test [1], in test [2], in test [3], in test [4], in test [5] and in test [6] was greater than 100 µM in each case. The TGI in [7], in test [8], in [9] and in test [10] was greater than 100 µM throughout.

On to `[N-]=[N+]=CC(=O)C1CCN(c2ccccc2)C1=O` (stereo not given), for which the total growth inhibition concentration (TGI) in [1], in test [2], in [3], in test [4], in test [5] and in test [6] was greater than 10 µM each time. Besides, the concentration for total growth inhibition (TGI) in test [7], in test [8], in test [9] and in test [10] was greater than 10 µM throughout.
